Test results from EP3181118B1, “SYNERGISTIC COMBINATION OF TXNR INHIBITORS AND ASCORBATE FOR TREATMENT OF B CELL MALIGNANCIES” (Warszawski Uniwersytet Medyczny, priority 2015, dated 2017).
Where two headings read alike, the source gives them in different places.

Legend:
[1] = cited from earlier work
adult mice = settings: cited from earlier work
[2] = tested on: normal B cells isolated from human tonsils; experiment: Non-viable cells by propidium iodide staining in normal B cells; format: cell-based; settings: TXNR inhibitor in combination with L-ASC, 48 hours, three healthy donors, Fig. 5
Protocol: Human tonsils were derived from subjects undergoing tonsillectomy. After resection, tonsils were cut into small pieces and incubated in the RPMI medium supplemented with collagenase and DNase for 30 min at 37 °C with gentle shaking and filtered through 70 µm cell strainer. After washing in PBS, mononuclear cells were isolated with Histopaque 1077 density gradient and subjected to CD19 negative selection using EasySep™ Human B Cell Enrichment Kit ([…] Technologies). The purity of isolated B cells exceeded 95%. Subsequently, B cells were suspended in RPMI medium supplemented with 10% fetal bovine serum and antibiotic/antimycotic solution, and incubated with L-ASC, SK053, AUR, exactly as Raji cells (described in Example 1). After 48 hours of incubation, the number of non-viable cells was determined by flow cytometry, as the fraction of propidium iodide positive cells. […] This experiment was repeated in three different healthy donors.

Raji cells [3] = experiment: Number of dead cells by propidium iodide staining, flow cytometry; format: cell-based, human; settings: 48 hours, Fig. 2; for propidium iodide-positive cells (dead cells): compound alone (L-ASC 100 µM)
Protocol: Raji cells were grown in RPMI medium supplemented with 10% fetal bovine serum and antibiotic/antimycotic solution. […] Cytostatic/cytotoxic effects of treatment were assessed by:
(b) Quantitation of the number of dead cells with propidium iodide staining using flow cytometry
100 µl of cells were mixed with 100 µl of propidium iodide solution (4 µg/ml in PBS) and the number of propidium iodide-positive cells (dead cells) was assessed using flow cytometer Accuri C6.

adult rats = settings: cited from earlier work
Raji cells [4] = experiment: MTT assay, cytostatic/cytotoxic effects; format: cell-based, human; settings: 48 hours, Fig. 1
Protocol: Raji cells were grown in RPMI medium supplemented with 10% fetal bovine serum and antibiotic/antimycotic solution. Raji cells were incubated for 15 min at 37 °C with 100 µM or 200 µM L-ASC and then TXNR inhibitors, SK053 or AUR, were added and the cells were cultured for additional 48 hours. Cytostatic/cytotoxic effects of treatment were assessed by:
(a) MTT (3-[4,5-dimethylthiazol-2-yl]-2,5-diphenyltetrazolium bromide) assay
20 µl of MTT (5mg/ml in PBS) was added to 100 µl of cells and maintained in cell culture conditions. After 2 hours, 100 µl of solubilization buffer (10% SDS, 0,01N HCl) was added to each well and plates were maintained in a cell culture incubator overnight. The absorbance was measured at 560 nm using a microplate reader (ASYS UVM 340, Biochrom). The relative viability was calculated according to the following formula: % viability = [(Am - Ab)/(Ac - Ab)] × 100%, where Am is the measured absorbance, Ab is the background absorbance, and Ac is the absorbance of vehiculum-treated controls (DMSO).

lymphoma cells = lymphoma cells in vitro; cited from earlier work
Raji cells [5] = experiment: Intracellular ROS level, CM-H2-DCFDA fluorescent probe, flow cytometry; format: cell-based, human
Protocol: The level of intracellular ROS in Raji cells treated with L-ASC and SK053 alone or in combination was evaluated. Raji cells were loaded with CM-H2-DCFDA fluorescent probe (Molecular Probes) according to the manufacturer's protocol, using 1 µM dye concentration for 30 min. at 37 °C. […] After 8 hours cells were harvested in PBS and the intensity of green fluorescence was analyzed by flow cytometry (Accuri C6).

advanced cancers = settings: patients with advanced cancers, L-ASC-treated subjects; cited from earlier work
[6] = cited from earlier work; remark: listed apart in the source
Raji cells [7] = experiment: Comparison of ascorbate stereoisomers and oxidized form combined with TXNR inhibitors (Fig. 3); format: cell-based, human; settings: ascorbate form combined with SK053 or AUR

CC(=O)OC[C@H]1O[C@@H]([S-])[C@H](OC(C)=O)[C@@H](OC(C)=O)[C@@H]1OC(C)=O.CCP(CC)CC.[Au+] [AUR, (2,3,4,6-tetra-O-acetyl-1-thio-β-D-glucopyranosato-S-) (triethyl-phosphine) gold complex]
labelled gold excreted ([1]; by day 10, total): 77% | labelled gold excreted with feces ([1]; by day 10): 73% | labelled gold excreted with urine ([1]; by day 10): 4% | AUR gold bound to red blood cells ([1]; in blood): approximately 40% | AUR gold bound to serum proteins ([1]; in blood): 60% | oral dose absorbed ([1]; oral, radiolabelled AUR): approximately 25% | peak plasma concentrations ([1]; oral, radiolabelled AUR): 0.3 to 0.4 µM | time to reach peak plasma concentrations ([1]; oral, radiolabelled AUR): 1 to 2 h | mean plasma half-life ([1]; radiolabelled AUR): 17 days | labelled gold retained in the body ([1]; six months after a single dose): 0,4% | acute oral LD50 (adult mice): 310 mg/kg | synergistic cytotoxic effect with L-ASC, fraction of propidium iodide positive cells [2]: synergistic cytotoxic effect between none of the TXNR inhibitors and L-ASC was observed | dead cells (Raji cells [3]; TXNR inhibitor in combination with 100 µM L-ASC): ~100% | propidium iodide-positive cells (dead cells) (Raji cells [3]): < 10% | acute oral LD50 (adult rats; adult rats, oral): 265 mg/kg | minimum lethal dose (adult rats; rats): 30 mg/kg | cytostatic/cytotoxic effects of TXNR inhibitor in combination with L-ASC (Raji cells [4]; in combination with 100 µM or 200 µM L-ASC): remarkably increased the cytostatic/cytotoxic effects

O=C1O[C@H]([C@@H](O)CO)C(O)=C1O [L-ASC, L-ascorbate]
LD50 (lymphoma cells): ~0,5 mM | ROS levels in the presence of catalase (Raji cells [5]; compound alone, with 100 µg/ml catalase, Fig. 4B): at the control levels | ROS levels (Raji cells [5]; compound alone: 100 µM ASC or 20 µM SK053, 8 hours, Fig. 4A): only slightly increased ROS levels | increased mean survival time (MST) (advanced cancers): over 4 fold | plasma concentration ([6]; high oral doses): approximately 220 µM | L-ASC plasma concentrations ([6]; intravenous (i.v.) delivery): up to 20 mM | L-ASC plasma concentrations ([6]; oral administration, maximal): ≤ 300 µM | peak plasma concentrations ([6]; slow i.v. infusion of high doses): over 10 mM | propidium iodide-positive cells (dead cells) (Raji cells [3]): < 10% | viability of Raji cells (Raji cells [4]; L-ASC alone at 100 µM and 200 µM): did not affect the viability

O=C1O[C@H]([C@@H](O)CO)C(=O)C1=O [L-DHA, dehydroascorbic acid]
interaction with TXNR inhibitors (SK053, AUR), cytotoxicity to Raji cells (Raji cells [7]): had no impact on cytotoxicity
